Drawing on PubChem BioAssay (NCI), this text covers TGI and GI50 for 22 compounds.

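Compound exposure: 48 hours, 5 concentrations, 96-well plates. GI50: concentration for 50% inhibition of growth. TGI: total growth inhibition.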

Among the test systems are OVCAR-5 ovarian; UO-31 renal; M14 melanoma; SF-539 CNS; NCI-H522 lung; SNB-75 CNS; UACC-257 melanoma; KM12 colon; MOLT-4 leukemia; HL-60(TB) leukemia.
Common to all, as to assay: growth of human tumour cells (NCI), 48 h

For `CCN(CC)Cc1cc(N=Nc2c(O)ccc3c(N=Nc4ccc(O)c(CN(CC)CC)c4)c(O)ccc23)ccc1O`, the TGI was greater than 44.9 µM in the assay with OVCAR-5 ovarian; 6.96 µM in the assay on UO-31 renal; greater than 38.5 µM in the assay on M14 melanoma; 9.2 µM with SF-539 CNS; 10.3 µM in the assay with NCI-H522 lung; 27.7 µM with SNB-75 CNS. Moreover, the results for the TGI with UACC-257 melanoma, in the assay on KM12 colon and in the assay on MOLT-4 leukemia were 16.5 µM, greater than 21.9 µM and 12.1 µM, respectively.

With `CCC(C)C(Nc1c2ccccc2nc2c(C(=O)NCCN(C)C)cccc12)C(=O)O` (stereo not given), the TGI is greater than 100 µM in the assay with OVCAR-5 ovarian; 81.5 µM in the assay with UO-31 renal; 44.1 µM in the assay on M14 melanoma; 56.8 µM in the assay on NCI-H522 lung; 61.8 µM in the assay on SNB-75 CNS; greater than 100 µM with KM12 colon. The compound further showed a TGI in the assay with MOLT-4 leukemia greater than 100 µM.

For the compound `COc1ccc(N2C(=O)C3ON(Cc4ccc(CC(N)=O)cc4)C(c4c5ccccc5c(C)c5ccccc45)C3C2=O)cc1` (stereo not given), the TGI was 83.8 µM with OVCAR-5 ovarian; 37.3 µM in the assay with UO-31 renal; greater than 100 µM with M14 melanoma; 51.2 µM with HL-60(TB) leukemia; greater than 100 µM in the assay on NCI-H522 lung; 38.1 µM in the assay with SNB-75 CNS. For the same compound, the figures for the TGI with UACC-257 melanoma, with KM12 colon and with MOLT-4 leukemia were 46.5 µM, greater than 100 µM and 6.41 µM, respectively.

On to `CC1=C(C)C(=O)OC(C(C)(O)C2(O)CC3OC34C3CC(O)C56OC5C=CC(=O)C6(C)C3CCC42C)C1` (stereo not given), for which the TGI with OVCAR-5 ovarian was 10.4 µM; with UO-31 renal it was 2.62 µM; in the assay with M14 melanoma, 12.6 µM; in the assay on SF-539 CNS, 6.39 µM; in the assay on NCI-H522 lung, 1.97 µM; in the assay with SNB-75 CNS it was 20.3 µM. Moreover, the figures for the TGI in the assay with UACC-257 melanoma, in the assay on KM12 colon and with MOLT-4 leukemia were 4.7 µM, 7.54 µM and 4.49 µM, respectively.

For the compound `Cc1[nH]c(=O)nc(N/N=C/c2c3ccccc3c(Cl)c3ccccc23)c1C(=O)Nc1ccc(Cl)cc1`, the TGI in the assay on OVCAR-5 ovarian is greater than 100 µM; in the assay on UO-31 renal it was greater than 100 µM; in the assay with M14 melanoma, greater than 100 µM; with HL-60(TB) leukemia it was 44.7 µM; with NCI-H522 lung, greater than 100 µM; with SNB-75 CNS, greater than 100 µM. In addition, the TGI in the assay with UACC-257 melanoma and in the assay on MOLT-4 leukemia was greater than 100 µM throughout.

As to `O=C(N/N=C\c1ccc(Cl)cc1)Nc1ccc2ccccc2c1`, the TGI is greater than 100 µM in the assay with OVCAR-5 ovarian; greater than 100 µM in the assay on UO-31 renal; greater than 100 µM in the assay with M14 melanoma; 75.7 µM in the assay with SF-539 CNS; greater than 100 µM in the assay on NCI-H522 lung; 76.8 µM in the assay on SNB-75 CNS. The TGI in the assay on UACC-257 melanoma, in the assay on KM12 colon and in the assay on MOLT-4 leukemia was greater than 100 µM each time.

As to `Cc1ccc([N+](=O)[O-])cc1S(=O)(=O)Nc1ccc(C2=NN(S(=O)(=O)c3cc([N+](=O)[O-])ccc3C)C(c3cccs3)C2)cc1` (stereo not given), the TGI with OVCAR-5 ovarian is greater than 100 µM; with UO-31 renal, greater than 100 µM; in the assay with M14 melanoma, greater than 100 µM; in the assay with HL-60(TB) leukemia, greater than 100 µM; in the assay on NCI-H522 lung, 79.5 µM; in the assay on SNB-75 CNS it was greater than 100 µM. For the same compound, the TGI was greater than 100 µM in the assay with UACC-257 melanoma, greater than 100 µM with KM12 colon and 89.3 µM in the assay with MOLT-4 leukemia.

With `CN(C)N1C(=O)C(=O)N(c2cccc3ccccc23)C1=O`, the TGI with OVCAR-5 ovarian, with UO-31 renal, with M14 melanoma, in the assay on HL-60(TB) leukemia, in the assay on SF-539 CNS and with NCI-H522 lung was greater than 10 µM in each case. For the same compound, the TGI with SNB-75 CNS, in the assay on KM12 colon and in the assay with MOLT-4 leukemia was greater than 10 µM throughout.

With `CCC1c2[nH]c3ccccc3c2C[C@H]2C(=O)NC(C)C(=O)N12` (stereo not given in full), the TGI with OVCAR-5 ovarian, in the assay with UO-31 renal, with M14 melanoma, in the assay on HL-60(TB) leukemia, with NCI-H522 lung and with SNB-75 CNS was greater than 100 µM throughout. In addition, the TGI with UACC-257 melanoma, with KM12 colon and in the assay on MOLT-4 leukemia was greater than 100 µM each time.

As to `O=C1/C(=C/c2cccc([N+](=O)[O-])c2)N=C(c2ccccc2)N1c1nc2ccc(Sc3ccccc3)cc2[nH]1`, the TGI with OVCAR-5 ovarian, in the assay with UO-31 renal, with M14 melanoma, with SF-539 CNS, in the assay on NCI-H522 lung and with SNB-75 CNS was greater than 100 µM each time. Further, the TGI in the assay on UACC-257 melanoma, in the assay on KM12 colon and in the assay on MOLT-4 leukemia was greater than 100 µM throughout.

With `O=c1cc(NNc2ccccc2)[nH]c(=O)[nH]1`, the TGI in the assay with OVCAR-5 ovarian was greater than 100 µM; in the assay with HL-60(TB) leukemia it was 64.6 µM; in the assay with SF-539 CNS, greater than 100 µM; with NCI-H522 lung it was 46.2 µM; in the assay on UACC-257 melanoma, 31.7 µM; in the assay with KM12 colon, 32.8 µM. This compound yielded a TGI in the assay with MOLT-4 leukemia of 66.1 µM.

`COC(=O)c1ccc(OCCn2nnc(C(=O)NN)c2C(=O)NN)cc1`: the TGI in the assay with OVCAR-5 ovarian, in the assay on UO-31 renal, in the assay on M14 melanoma, in the assay with HL-60(TB) leukemia, in the assay with UACC-257 melanoma and in the assay on KM12 colon was greater than 100 µM each time. In the assay with MOLT-4 leukemia, this compound came in with a TGI greater than 100 µM.

For `Cc1cccc2c(=O)c3cccc([C@H](C)C(=O)O)c3oc12`, the TGI in the assay on UO-31 renal, in the assay on M14 melanoma, with HL-60(TB) leukemia, with SF-539 CNS, in the assay on NCI-H522 lung and with UACC-257 melanoma was greater than 100 µM in each case. In addition, the TGI in the assay with KM12 colon and in the assay on MOLT-4 leukemia was greater than 100 µM throughout.

Regarding `CCOC(CBr)OC1C(=O)OCC1(C)C` (stereo not given), the TGI in the assay on OVCAR-5 ovarian, with UO-31 renal, in the assay on M14 melanoma, in the assay on HL-60(TB) leukemia, in the assay with NCI-H522 lung and in the assay with SNB-75 CNS was greater than 100 µM throughout. In addition, the TGI in the assay on UACC-257 melanoma, in the assay with KM12 colon and with MOLT-4 leukemia was greater than 100 µM throughout.

As for `O=C(Cn1c2ccc(Br)cc2c2nc3ccccc3nc21)NCc1ccccc1`, the TGI is greater than 100 µM in the assay with OVCAR-5 ovarian; greater than 100 µM in the assay on UO-31 renal; greater than 100 µM in the assay with M14 melanoma; 19.8 µM in the assay with SNB-75 CNS; greater than 100 µM in the assay with UACC-257 melanoma; greater than 100 µM in the assay with KM12 colon. Moreover, the TGI in the assay with MOLT-4 leukemia is greater than 100 µM.

Turning to `O=C(O)c1ccc2c(O)c(O)ccc2c1`, the TGI with OVCAR-5 ovarian is 57.5 µM; with UO-31 renal, 41.4 µM; with M14 melanoma, 61.8 µM; in the assay with SF-539 CNS it was greater than 100 µM; with NCI-H522 lung it was 36.4 µM; in the assay on SNB-75 CNS, 22.4 µM. The values for the TGI with UACC-257 melanoma, in the assay on KM12 colon and with MOLT-4 leukemia were 50.5 µM, 31.3 µM and 18 µM, respectively.

Take `CCC1(O)C(=O)OCc2c1cc1n(c2=O)Cc2cc3cc4c(cc3nc2-1)OCO4` (stereo not given): the TGI was found to be 0.693 µM in the assay on OVCAR-5 ovarian; 0.0512 µM in the assay on UO-31 renal; 0.0632 µM in the assay on M14 melanoma; 0.479 µM with HL-60(TB) leukemia; 0.383 µM in the assay on NCI-H522 lung; 0.0369 µM with SNB-75 CNS. Further, the results for the TGI with UACC-257 melanoma, in the assay on KM12 colon and with MOLT-4 leukemia were 0.822 µM, 5.69 µM and 0.178 µM, respectively. Also, in the assay with KM12 colon, the GI50 is 0.0978 µM.

For the compound `O=C1c2c(c3c4cc(F)ccc4oc3c3[nH]c4ccccc4c23)C(=O)N1O`, the GI50 with OVCAR-5 ovarian was 38.2 µM; in the assay on SF-539 CNS, 1.6 µM; in the assay on NCI-H522 lung it was 0.53 µM; with SNB-75 CNS it was 0.0769 µM; in the assay on UACC-257 melanoma, 2.31 µM; in the assay on KM12 colon it was 3.33 µM. The TGI in the assay with OVCAR-5 ovarian is greater than 100 µM; with SF-539 CNS, 9.09 µM; with NCI-H522 lung, 5.41 µM; in the assay with SNB-75 CNS, 4.55 µM; in the assay on UACC-257 melanoma, 6.68 µM; with KM12 colon, greater than 100 µM.

With `NCCCn1c(Cl)nc2ccccc21`, the TGI in the assay on OVCAR-5 ovarian, in the assay with UO-31 renal, in the assay with M14 melanoma, with HL-60(TB) leukemia, with NCI-H522 lung and in the assay on SNB-75 CNS was greater than 100 µM throughout. Further, the TGI in the assay on KM12 colon and in the assay with MOLT-4 leukemia was greater than 100 µM in each case.

With `COc1cc2ncnc(NS(=O)(=O)c3cc4ccccc4s3)c2cc1OC`, the TGI in the assay with OVCAR-5 ovarian, in the assay with UO-31 renal, with M14 melanoma, in the assay on SF-539 CNS, in the assay on NCI-H522 lung and with SNB-75 CNS was greater than 100 µM each time. In addition, the TGI with UACC-257 melanoma, in the assay on KM12 colon and in the assay on MOLT-4 leukemia was greater than 100 µM each time.

For `COc1ccc(-c2cc(-c3ccc(C)cc3)n(C3OC(COC(C)=O)C(OC(C)=O)C(OC(C)=O)C3OC(C)=O)c(=S)c2C#N)cc1` (stereo not given), the TGI with OVCAR-5 ovarian, with UO-31 renal, with M14 melanoma, in the assay on HL-60(TB) leukemia, in the assay on SF-539 CNS and in the assay on NCI-H522 lung was greater than 100 µM throughout. The TGI with SNB-75 CNS is 92 µM; in the assay with KM12 colon, greater than 100 µM; with MOLT-4 leukemia, greater than 100 µM.

As for `CC(C)CC1c2[nH]c3ccccc3c2C[C@H]2C(=O)NC(Cc3c[nH]c4ccccc34)C(=O)N12` (stereo not given in full), the TGI amounted to 48 µM in the assay on OVCAR-5 ovarian; 42.9 µM in the assay on UO-31 renal; 29 µM in the assay on M14 melanoma; 40.9 µM in the assay with HL-60(TB) leukemia; 29.5 µM in the assay with NCI-H522 lung; 28.9 µM in the assay on UACC-257 melanoma. The TGI in the assay with KM12 colon is 28.8 µM; in the assay with MOLT-4 leukemia it was 39.1 µM.
